From the NIST ThermoML archive (doi:10.1021/je800110r)
Where “and” joins values, the source holds several entries; their conditions need not be identical. Equal entries are not always repeated. Numbers after ± are expanded uncertainties.

Details: Liquid, Vibrating tube method

CCCCCCCCCC [decane]
Details | mass density
313.14 K, 33167 kPa | 739.6 ± 2.1 kg/m3
313.14 K, 33192 kPa | 739.6 ± 2.1 kg/m3
313.14 K, 33228 kPa | 739.6 ± 2.1 kg/m3
313.14 K, 33249 kPa | 739.6 ± 2.1 kg/m3
313.14 K, 33282 kPa | 739.6 ± 2.1 kg/m3
313.14 K, 33310 kPa | 739.6 ± 2.1 kg/m3
313.14 K, 33326 kPa | 739.8 ± 2.1 kg/m3
313.14 K, 33356 kPa | 739.6 ± 2.1 kg/m3
313.14 K, 33377 kPa | 739.6 ± 2.1 kg/m3
313.14 K, 33399 kPa | 739.8 ± 2.1 kg/m3
313.14 K, 33423 kPa | 739.6 ± 2.1 kg/m3
313.14 K, 33447 kPa | 739.8 ± 2.1 kg/m3
313.14 K, 33472 kPa | 739.7 ± 2.1 kg/m3
313.14 K, 33490 kPa | 739.8 ± 2.1 kg/m3
313.14 K, 33518 kPa | 739.7 ± 2.1 kg/m3
313.14 K, 33536 kPa | 739.8 ± 2.1 kg/m3
313.14 K, 33561 kPa | 739.7 ± 2.1 kg/m3
313.14 K, 33582 kPa | 739.8 ± 2.1 kg/m3
313.14 K, 33604 kPa | 739.9 ± 2.1 kg/m3
313.14 K, 33629 kPa | 739.9 ± 2.1 kg/m3
313.14 K, 33657 kPa | 740 ± 2.1 kg/m3
313.14 K, 33682 kPa | 739.9 ± 2.1 kg/m3
313.14 K, 33707 kPa | 739.8 ± 2.1 kg/m3
313.14 K, 33726 kPa | 739.8 ± 2.1 kg/m3
313.14 K, 33748 kPa | 739.9 ± 2.1 kg/m3
313.14 K, 33766 kPa | 739.6 ± 2.1 kg/m3
313.14 K, 33782 kPa | 739.9 ± 2.1 kg/m3
313.14 K, 33804 kPa | 740 ± 2.1 kg/m3
313.14 K, 33832 kPa | 740 ± 2.1 kg/m3
313.14 K, 33858 kPa | 740 ± 2.1 kg/m3
313.14 K, 33880 kPa | 740 ± 2.1 kg/m3
313.14 K, 33906 kPa | 740.1 ± 2.1 kg/m3
313.14 K, 33924 kPa | 740.1 ± 2.1 kg/m3
313.14 K, 33950 kPa | 740 ± 2.1 kg/m3
313.14 K, 33978 kPa | 740.2 ± 2.1 kg/m3
313.14 K, 33997 kPa | 740.1 ± 2.1 kg/m3
313.14 K, 34023 kPa | 740.1 ± 2.1 kg/m3
313.14 K, 34043 kPa | 740.1 ± 2.1 kg/m3
313.14 K, 34066 kPa | 740.1 ± 2.1 kg/m3
313.14 K, 34082 kPa | 740.2 ± 2.1 kg/m3
313.14 K, 34105 kPa | 740.2 ± 2.1 kg/m3
313.14 K, 34131 kPa | 740.1 ± 2.1 kg/m3
313.14 K, 34158 kPa | 740.3 ± 2.1 kg/m3
313.14 K, 34181 kPa | 740.1 ± 2.1 kg/m3
313.14 K, 34211 kPa | 740.2 ± 2.1 kg/m3
313.14 K, 34231 kPa | 740.2 ± 2.1 kg/m3
313.14 K, 34264 kPa | 740.2 ± 2.1 kg/m3
313.14 K, 34281 kPa | 740.2 ± 2.1 kg/m3
313.14 K, 34305 kPa | 740.2 ± 2.1 kg/m3
313.14 K, 34333 kPa | 740.3 ± 2.1 kg/m3
313.14 K, 34358 kPa | 740.4 ± 2.1 kg/m3
313.14 K, 34391 kPa | 740.4 ± 2.1 kg/m3
313.14 K, 34414 kPa | 740.4 ± 2.1 kg/m3
313.14 K, 34437 kPa | 740.4 ± 2.1 kg/m3
313.14 K, 34466 kPa | 740.4 ± 2.1 kg/m3
313.14 K, 34503 kPa | 740.5 ± 2.1 kg/m3
313.14 K, 34520 kPa | 740.4 ± 2.1 kg/m3
313.14 K, 34543 kPa | 740.4 ± 2.1 kg/m3
313.14 K, 34560 kPa | 740.5 ± 2.1 kg/m3
313.14 K, 34566 kPa | 740.4 ± 2.1 kg/m3
313.14 K, 34568 kPa | 740.5 ± 2.1 kg/m3
313.14 K, 34571 kPa | 740.4 ± 2.1 kg/m3 and 740.5 ± 2.1 kg/m3
313.15 K, 1010 kPa | 715.4 ± 2 kg/m3
313.15 K, 1032 kPa | 715.4 ± 2 kg/m3
313.15 K, 1055 kPa | 715.5 ± 2 kg/m3
313.15 K, 1082 kPa | 715.5 ± 2 kg/m3
313.15 K, 1102 kPa | 715.4 ± 2 kg/m3
313.15 K, 1122 kPa | 715.5 ± 2 kg/m3
313.15 K, 1147 kPa | 715.6 ± 2 kg/m3
313.15 K, 1182 kPa | 715.5 ± 2 kg/m3
313.15 K, 1217 kPa | 715.7 ± 2 kg/m3
313.15 K, 1254 kPa | 715.6 ± 2 kg/m3
313.15 K, 3801 kPa | 717.9 ± 2 kg/m3
313.15 K, 6798 kPa | 720.3 ± 2 kg/m3
313.15 K, 6849 kPa | 720.5 ± 2 kg/m3
313.15 K, 6918 kPa | 720.6 ± 2 kg/m3
313.15 K, 6929 kPa | 720.5 ± 2 kg/m3
313.15 K, 7976 kPa | 721.4 ± 2 kg/m3
313.15 K, 7995 kPa | 721.4 ± 2 kg/m3
313.15 K, 8013 kPa | 721.4 ± 2 kg/m3
313.15 K, 8034 kPa | 721.4 ± 2 kg/m3
313.15 K, 8045 kPa | 721.4 ± 2 kg/m3
313.15 K, 8059 kPa | 721.4 ± 2 kg/m3
313.15 K, 8073 kPa | 721.5 ± 2 kg/m3
313.15 K, 8087 kPa | 721.4 ± 2 kg/m3
313.15 K, 8102 kPa | 721.4 ± 2 kg/m3
313.15 K, 8113 kPa | 721.4 ± 2 kg/m3
313.15 K, 8129 kPa | 721.5 ± 2 kg/m3
313.15 K, 8649 kPa | 721.9 ± 2 kg/m3
313.15 K, 8666 kPa | 721.9 ± 2 kg/m3
313.15 K, 8707 kPa | 721.7 ± 2 kg/m3
313.15 K, 15697 kPa | 727.3 ± 2 kg/m3
313.15 K, 15727 kPa | 727.5 ± 2 kg/m3
313.15 K, 15757 kPa | 727.3 ± 2 kg/m3
313.15 K, 15781 kPa | 727.5 ± 2 kg/m3
313.15 K, 15816 kPa | 727.6 ± 2 kg/m3
313.15 K, 15846 kPa | 727.6 ± 2 kg/m3
313.15 K, 15873 kPa | 727.6 ± 2 kg/m3
313.15 K, 17591 kPa | 728.8 ± 2 kg/m3
313.15 K, 17641 kPa | 728.9 ± 2 kg/m3
313.15 K, 17664 kPa | 728.8 ± 2 kg/m3
313.15 K, 17686 kPa | 728.8 ± 2 kg/m3
313.15 K, 17711 kPa | 728.9 ± 2 kg/m3
313.15 K, 17734 kPa | 728.9 ± 2 kg/m3
313.15 K, 20359 kPa | 730.9 ± 2 kg/m3
313.15 K, 20406 kPa | 730.9 ± 2 kg/m3
313.15 K, 20562 kPa | 730.8 ± 2 kg/m3
313.15 K, 20961 kPa | 731.3 ± 2 kg/m3
313.15 K, 20986 kPa | 731.2 ± 2 kg/m3
313.15 K, 21097 kPa | 731.3 ± 2 kg/m3
313.15 K, 21119 kPa | 731.3 ± 2 kg/m3
313.15 K, 21249 kPa | 731.5 ± 2 kg/m3
313.15 K, 21278 kPa | 731.5 ± 2 kg/m3
313.15 K, 21337 kPa | 731.5 ± 2 kg/m3
313.15 K, 21367 kPa | 731.5 ± 2 kg/m3
313.15 K, 21711 kPa | 731.8 ± 2 kg/m3
313.15 K, 21800 kPa | 731.8 ± 2 kg/m3
313.15 K, 22455 kPa | 732.2 ± 2 kg/m3
313.15 K, 22492 kPa | 732.4 ± 2 kg/m3
313.15 K, 22548 kPa | 732.4 ± 2 kg/m3
313.15 K, 22615 kPa | 732.4 ± 2 kg/m3
313.15 K, 22970 kPa | 732.6 ± 2 kg/m3
313.15 K, 22997 kPa | 732.7 ± 2 kg/m3
313.15 K, 23029 kPa | 732.6 ± 2 kg/m3
313.15 K, 23052 kPa | 732.6 ± 2 kg/m3
313.15 K, 23072 kPa | 732.7 ± 2 kg/m3
313.15 K, 23096 kPa | 732.7 ± 2 kg/m3
313.15 K, 23131 kPa | 732.8 ± 2 kg/m3
313.15 K, 23163 kPa | 732.8 ± 2 kg/m3
313.15 K, 23183 kPa | 732.9 ± 2 kg/m3
313.15 K, 23218 kPa | 732.9 ± 2 kg/m3
313.15 K, 23249 kPa | 732.9 ± 2 kg/m3
313.15 K, 23281 kPa | 733 ± 2 kg/m3
313.15 K, 23309 kPa | 732.8 ± 2 kg/m3
313.15 K, 23338 kPa | 733 ± 2 kg/m3
313.15 K, 23370 kPa | 733 ± 2 kg/m3
313.15 K, 25526 kPa | 734.6 ± 2.1 kg/m3
